Data taken from US20250367209A1 (SOUTHERN RESEARCH INSTITUTE, priority 2022, published 2025).
“Also recorded” adds a separate entry of the source.

How the values were obtained:
[1] = Partition coefficient (LogD); format: physicochemical; settings: Table 3; read-out: ADME LogD
Source text: (§1) A computational analysis of the top five hits was then completed to assess the physical attributes of the compounds emerging from the HTS. The target profile for drug-like properties included evaluation of molecular weight (MW), total polar surface area (PSA, the surface sum of all polar atoms on the molecule), solubility, metabolic stability, and partition coefficient (LogD). In general, MW<[…] and PSA <70 Å^2 were targeted, which generally allows for blood-brain barrier (BBB) permeability. Compounds with PSA >100 A^2 are generally poor at permeating cell membranes. Solubility was targeted at >10 μM at pH 7.4 and 40-60% of compound remaining after 60 minutes of incubation in mouse or human liver microsomes (an indicator of compound stability after first-pass metabolism). LogD is the log of the ratio of concentrations of a compound in two immiscible solvents at equilibrium. Values ranging from 2-4 were targeted, typical for CNS drugs. Based on these criteria, compound no. 55 was selected as the top hit for optimization. Compound no.

Tau-FynSH3 interaction = Tau-FynSH3 interaction (Homo sapiens (Human), UniProt P10636); experiment: Tau-FynSH3 AlphaScreen; format: binding; settings: Table 3; read-out: Alpha screen IC50
Sequence of Tau-FynSH3 interaction (P10636 other isoform, or with tags, fused parts or gaps): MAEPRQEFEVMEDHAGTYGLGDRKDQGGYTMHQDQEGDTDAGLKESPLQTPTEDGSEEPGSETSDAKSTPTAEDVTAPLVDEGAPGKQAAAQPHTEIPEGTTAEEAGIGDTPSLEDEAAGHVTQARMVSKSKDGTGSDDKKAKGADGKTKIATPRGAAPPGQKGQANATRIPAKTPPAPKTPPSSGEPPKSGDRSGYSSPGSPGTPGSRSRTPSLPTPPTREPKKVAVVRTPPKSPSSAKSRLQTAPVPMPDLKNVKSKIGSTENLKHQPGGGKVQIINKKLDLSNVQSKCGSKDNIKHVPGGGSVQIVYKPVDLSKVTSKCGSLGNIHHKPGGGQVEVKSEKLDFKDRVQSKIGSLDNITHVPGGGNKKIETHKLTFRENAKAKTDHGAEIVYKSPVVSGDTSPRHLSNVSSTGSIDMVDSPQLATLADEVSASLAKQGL
Source text: Human Fyn-SH3 domain with GST-tag at the N-terminus and a Strep-tag II ([…]) at the C-terminus (GST-Fyn-SH3-Strep) was cloned into pPR-IBA1 vector (IBA Lifesciences) (Cochran, et al. (2014) J. Biomol. Screen. 19, 1338-1349). Codon-optimized human 4R2N Tau for E. coli expression with a Strep-tag II at the C-terminus (His-Tau-Strep) was cloned into pET-28a(+) vector (Novagen). The constructs were transformed into E. coli BL-21(DE3) competent cells (Novagen). For GST-Fyn-SH3-Strep purification, a single colony was inoculated in Luria-Bertani (LB) broth at 37° C. overnight. 10 mL cell culture was added into 500 mL LB medium and cultured at 37° C. 0.5 mM Isopropyl β-D-1-thiogalactopyranoside (IPTG) was added into the culture when OD600 reached 0.7. Cells were further cultured at 25° C. for 4 hours and harvested. Cell pellet was resuspended in lysis buffer (20 mM Tris pH 7.9, 300 mM NaCl, 1 mM TCEP) with 1 tablet of EDTA-free protease inhibitors (ThermoFisher) and 1 mg/ml lysozyme. Cells were disrupted by sonication and debris was removed by centrifugation at 9500 rpm for 1 hour. Supernatant was loaded onto a glutathione-sepharose column (Cytiva). The column was washed in lysis buffer and protein eluted in lysis buffer containing 25 mM reduced glutathione. For His-Tau-Strep protein purification, cells were inoculated in LB broth medium and cultured at 37° C. overnight. A 10 mL overnight culture was added to 500 mL of auto-induction medium (Studier, F. W. (2005) Protein Expr Purif 41, 207-34) and cells were cultured at 37° C. for about 5 hours. The temperature was lowered to 18° C., and cells were cultured overnight. Cells were harvested and resuspended in lysis buffer with 20 mM imidazole, protease inhibitors, and lysozyme. Cells were disrupted by sonication and cell pellets were spun down at 9500 rpm for 1 hour. Supernatant was loaded onto Ni-NTA column (Cytiva) and the column was washed in lysis buffer with 20 mM imidazole. His-Tau-Strep protein was eluted in lysis buffer containing 400 mM imidazole. Both eluted GST-Fyn-SH3-Strep and His-Tau-Strep protein solutions were passed through G-25 desalting column (Cytiva) with lysis buffer and loaded onto high capacity Strep-Tactin column (IBA Lifesciences). The columns were washed in Buffer W (IBA Life sciences) and proteins were eluted in Buffer E (IBA life sciences). The eluted proteins were passed through G-25 desalting column again. Both GST-Fyn-Strep and His-Tau-Strep proteins were concentrated and diluted 1:1 in ethylene glycol as a cryoprotectant for storage at −80° C.
AlphaScreen was conducted with 10 µg/mL of glutathione donor beads (PerkinElmer, Waltham, MA) and nickel chelate acceptor beads (PerkinElmer) in 10 mM Bis-Tris (pH 7.0), 1 mM TCEP, 0.02% casein, and 0.1% Tween-20. Compounds were plated first followed by addition of one the proteins at 600 nM and incubation for 30 min. The second protein was added and incubated for 30 mn, then the beads were added simultaneously and the final mixture was incubated for 2 hours. Experiments were conducted in 384-well plates (6007290; PerkinElmer) and results were read on a PHERAstar plate reader (BMG Labtech, Cary, NC).
˜50,000 compounds from the Enamine and Southern Research libraries were screened to identify Tau-FynSH3 interaction inhibitors using an AlphaScreen assay (Cochran, et al. (2014) J. Biomol. Screen. 19, 1338-1349). Compounds that were >3 standard deviations above mean inhibition were selected, yielding 1,852 hits (FIG. 1A). […]. These 39 compounds were tested in a live-cell BRET assay to measure Tau-Fyn interaction in cells. […]. Screen. 19, 1338-1349).

[2] = Metabolic stability in human liver microsomes; format: in vitro ADME; settings: Table 3, read-out: ADME t1/2 (min): HLMt1/2
Source text: as §1

primary rat neurons = experiment: Modified MTT assay of Aβ toxicity in primary neurons; format: cell-based; settings: Table 3; Aβ toxicity in primary neurons
Source text: Primary neuron cultures: All animal procedures were approved by the Institutional Animal Care and Use Committee at the University of Alabama at Birmingham (UAB). As before (Rush, et al. (2020) Neurobiol Dis 134, 104668; Voskobiynyk, et al. (2020) eLife 9, e57354), primary rat neurons were isolated from timed-pregnant Sprague-Dawley rats. Briefly, dams were euthanized with isoflurane anesthesia asphyxiation, and hippocampal tissue was isolated from E19 embryos in Hibernate E, then digested in papain for 10 minutes at 37° C. Neurons were triturated into a single cell suspension in Neurobasal supplemented with B-27, L-Glutamine, and 10% FBS, then plated in 96-well plates coated with PDL and laminin at 30,000 neurons per well in 200 uL medium or in 24-well coated plates with or without coverslips at 50,000 per well. Cultures were maintained at 37° C. with 5% CO2. Twenty-four hours after plating (DIV1), two 50% media changes with Neurobasal plus B-27 and L-Glutamine without FBS, and 5 μM cytosine β-D-arabinofuranoside was added to prevent glial proliferation. 50% media changes were performed at DIV7 and DIV14 with serum-free supplemented Neurobasal and experiments were started at DIV19.
Aβ oligomer preparation: As before (Rush, et al. (2020) Neurobiol Dis 134, 104668), lyophilized recombinant Aβ42 was dissolved in HFIP, dried overnight, then stored at −20° C. until oligomerization. To oligomerize, Aβ was dissolved in DMSO to 1 mM, then diluted to 100 µM in PBS, then sonicated and left on ice for 24 hours. Immediately prior to use, Aβ was centrifuged at 4° C. for 10 minutes at 14,000×g. Vehicle was prepared as well in identical fashion except lacking the Aβ peptide.
Aβ toxicity assays: The modified MTT and MAP2 assays were adapted from a recent study (Rush, et al. (2020) Neurobiol Dis 134, 104668). Briefly, at DIV19, media on the neurons was reduced to […], then compound was added to final concentration of 0 μM, 0.3 μM, 3 μM, or 15 μM with even amounts of DMSO. After 90-minute pretreatment with compound, 2.5 μM Aβ was added.
The modified MTT assay was performed 24 hours after Aβ application. 100 μM MTT was applied to neurons and incubated at 37° C. for one hour. Media was removed, then replaced with 15 μL 1.6% Tween20 in PBS and incubated on a shaker at 100 rpm for 5 minutes. The Tween was then removed and transferred to a 384-well clear-bottom plate and replaced with 15 μL isopropanol. Plates were again agitated for 5 minutes at RT, then isopropanol was transferred to the 384-well plate. Absorbance was then read at 590 nm on a plate reader, with 660 nm used as a reference. The ratio of Tween soluble MTT to isopropanol soluble (Tween-insoluble) MTT was calculated for each sample, then normalized to the vehicle group average.

Solubility = format: physicochemical; settings: Table 3
[3] = Metabolic stability in mouse liver microsomes; format: in vitro ADME; settings: mouse, liver microsomes, Table 3, read-out: ADME t1/2 (min): MLMt1/2
Tau-Fyn interaction = Tau-Fyn interaction (Homo sapiens (Human), UniProt P10636); experiment: Tau-Fyn PLA screening in HEK-293 cells; format: cell-based; settings: Table 3; Tau-Fyn PLA
Sequence of Tau-Fyn interaction (P10636 other isoform, or with tags, fused parts or gaps): as above
Description: Tau-Fyn PLA screening in HEK-293 cells: For Tau-Fyn PLA in HEK-293 cells, we used the same plasmids as before (Rush, et al. (2020) Neurobiol Dis 134, 104668): human 4R2N Tau with an N-terminal mKate2 tag in a pcDNA3.1 vector and human Fyn with an N-terminal Myc tag in a pCMV-Sport6 vector grown in Stellar E. coli. HEK-293 cells were plated on coverslips coated with PDL and laminin in a 24-well plate in DMEM supplemented with 10% FBS and 1% PenStrep. Cells were transfected with 125 ng of Tau-mKate2 and Fyn plasmids with 1.5 μL Fugene in plain DMEM. After 24 hours, compound was applied at 15 μM. Twenty-four hours after application, cells were fixed. PLA protocol was the same as above except for different primary antibodies (Tau5 1:500, Fyn3 1:250). After image acquisition, PLA density was calculated as PLA puncta (as above) divided by cell area to account for differences in confluency. Cell area was defined with ImageJ as % Area after theresholding Tau-mKate2 fluorescence because it filled the cells evenly. Puncta/cell area was then normalized to vehicle-treated slides from that experiment.

[4] = Phase IIa, van Dyck et al. 2019; cited from earlier work
97 kinases = experiment: Eurofins DiscoverX ScanEDGE kinase panel; format: biochemical; settings: compound no. 69 at 3 μM; saracatinib stock 30 μM = 1000× testing concentration; activity = <35% of control
Source text: 69 and compound no. […] Since Fyn was not included in that panel, a custom panel was completed for Fyn kinase activity.

[5] = tested on: Sam68(PxxP)-FynSH3 interaction; settings: Oneyama et al. 2002; cited from earlier work

Compound	logD [1]	IC50 (Tau-FynSH3 interaction) [nM]	half-life [2] [min]	ADME Sol (μM) (Solubility)	half-life [3] [min]	PLA (Tau-Fyn interaction)	MTT (primary rat neurons)	clinical benefit in AD [4]	kinase inhibition, panel of 97 kinases (97 kinases)	Sam68(PxxP)-FynSH3 interaction [5]
O=C(CCN1C(=O)CSc2cc(Cl)ccc21)Nc1nnc(-c2ccccn2)[nH]1 [compound 8, 3-(7-CHLORO-3-OXO-2H-BENZO[B][1,4]THIAZIN-4(3H)-YL)-N-(5-(PYRIDIN-2-YL)-4H-1,2,4-TRIAZOL-3-YL)PROPANAMIDE]	2.3	2720	62	Sol = 24 μM	18		Active			
CN1CCN(CCOc2cc(OC3CCOCC3)c3c(Nc4c(Cl)ccc5c4OCO5)ncnc3c2)CC1 [saracatinib, reference compound]								showed no clinical benefit in AD at a tolerable dose	inhibited several Src family kinases; also recorded: inhibits Src, Fyn, Abl, and EGFR kinase activity	
UCS15A										inhibits Sam68(PxxP)-FynSH3 interaction

The next lines start with results.

logD [1]	IC50 (Tau-FynSH3 interaction) [nM]	half-life [2] [min]	ADME Sol (μM) (Solubility)	half-life [3] [min]	PLA (Tau-Fyn interaction)	Compound	MTT (primary rat neurons)	clinical benefit in AD [4]	kinase inhibition, panel of 97 kinases (97 kinases)	Sam68(PxxP)-FynSH3 interaction [5]
1.3	1500	28	Sol = 20 μM	8		CC1(C)Sc2ccccc2N(CC(=O)Nc2nnc(-c3ccccn3)[nH]2)C1=O [compound 19]				
1.7	1030	175	Sol = 46 μM	53		COc1ccc2c(c1)SCC(=O)N2CC(=O)Nc1nnc(-c2ccccn2)[nH]1 [compound 21, 2-(7-METHOXY-3-OXO-2H-BENZO[B][1,4]THIAZIN-4(3H)-YL)-N-(5-(PYRIDIN-2-YL)-4H-1,2,4-TRIAZOL-3-YL)ACETAMIDE]				
1.8		150	Sol = 80 μM	56	Active	COc1ccc2c(c1)N(CC(=O)Nc1nnc(-c3ccccn3)[nH]1)C(=O)CS2 [compound 22, 2-(6-METHOXY-3-OXO-2H-BENZO[B][1,4]THIAZIN-4(3H)-YL)-N-(5-(PYRIDIN-2-YL)-4H-1,2,4-TRIAZOL-3-YL)ACETAMIDE]	Active			
1.5	1010	> 300	Sol = 22 μM	82		O=C(Cn1c(=O)sc2ccccc21)Nc1nnc(-c2ccccn2)[nH]1 [compound 26]				
